These results are taken from article PMC9916978, “Enantioselective Human Serum Albumin Binding of Apremilast: Liquid Chromatographic, Fluorescence and Molecular Docking Study” (International Journal of Molecular Sciences, 2023).

The target of assay [1] is T1, human serum albumin (HSA) (Homo sapiens, UniProt P02768).
T1 construct: purchased Chiral Technologies Inc., a subsidiary of Daicel Chemical Industries Ltd
The experiment in a line: van 't Hoff thermodynamic analysis on the Chiral-HSA column. In kind it is binding. The following applies: 10 mM phosphate buffer/IPA 96/4 v/v%, 10–30 °C, transfer from mobile phase to HSA stationary phase. As for the experimental part:
The separation temperature is one of the main determinant factors that can affect selectivity, resolution, retention factor and even the elution order of enantiomers during HPLC enantioseparations. To investigate the effects of temperature and to gain a better understanding of the mechanistic aspects of the enantiodiscrimination process on the Chiral-HSA column, thermodynamic analysis was performed in a 10 mM phosphate buffer/IPA 96/4 v/v% mixture.
To understand the energetic interactions between the analytes and the stationary phase, the classical van ’t Hoff approach was applied assuming only enantioselective interaction sites on the stationary phase. However, it should be noted that it is more realistic if both enantioselective and non-enantioselective interactions are considered.
Van ’t Hoff plots were constructed according to Equation (1) by plotting the natural logarithm of the retention factor as a function of the inverse of the absolute temperature in the temperature range of 10–30 °C, with 5 °C increments (a higher temperature was not applied due to possible column damage) (1) lnk=[…]+ΔS^°/R+lnΦ where R stands for the universal gas constant, T is the temperature in Kelvin, and k is the retention factor of the individual enantiomers. ΔH° denotes the standard enthalpy, while ΔS° is the standard entropy change of transfer of the solute from the mobile phase to the stationary phase, and Φ is the phase ratio of the HSA column. If ΔH° is constant in the selected temperature range, a linear relationship is obtained between lnk and 1/T, with a slope of −ΔH°/R and an intercept of ΔS°/R + lnΦ. Since the value of the phase ratio is seldom known, ΔS°* values (ΔS°* = ΔS° + RlnΦ) are often used to compensate for the uncertainty in Φ [38, 39].
Similarly, the differences in the change of standard enthalpy Δ(ΔH°) and standard entropy Δ(ΔS°) for the two enantiomers moving from the mobile phase to the stationary phase were also calculated according to the modified van ’t Hoff equation:(2) lnα=−∆(∆H^°)/RT+∆(∆S^°)/R
The isoenantioselective temperatures (Tiso) were also calculated as the ratio between Δ(ΔH°) and Δ(ΔS°), according to Equation (3). Tiso represents the temperature at which the enthalpy contribution is compensated by the entropic term, which means that […] (Δ(ΔG°)) equals zero. The thermodynamic parameter Δ(ΔG°) provides information on the strength of binding between selector and selectant, with more negative values indicating a more efficient binding. Consequently, a value of Δ(ΔG°) = 0 means that there is no difference between the binding strength of the enantiomers; therefore, at Tiso, the two enantiomers co-elute, and no separation is achieved. (3) Tiso=∆(∆H^°)/∆(∆S^°) (4) ∆(∆G^°)=∆(∆H^°)−T∗∆(∆S^°)

Assay [2] deals with T1, human serum albumin (HSA). Nature of the assay: Fluorescence quenching titration of HSA, stability constants. In kind it is binding. The conditions noted are these: 10 mM phosphate buffer pH 7, 25 °C, excitation 280 nm. As for the experimental part:
The observed fluorescence intensities of HSA and the HSA–APR complexes at increasing APR concentrations were plotted against the total concentration of APR in the solution, and the stability constants were calculated according to Equation (18) by nonlinear parameter fitting.
The fluorescence measurements were carried out on a Jasco J-815 spectropolarimeter with a connected CDF-426L fluorescence detector and a temperature-controlled 10 mm cuvette holder (Jasco, Tokyo, Japan), thermostated to 25 °C with a Lauda water bath circulation thermostat (Lauda Brinkmann, Königshofen, Germany). Spectra Manager software (ver.: 2.08.04) was used for data analysis. The fluorescence analysis was performed with an excitation spectrum of 260–300 nm and detection of the cumulative fluorescence spectrum. […] A volume of 3 mL of the HSA stock solution with an HSA concentration of 0.32 μM was titrated with 2.5–30 μL of S- and, separately, R-APR solutions prepared at 3.75 mg mL^−1 in MeOH, which equals to a range of 6.8–80.6 μM of APR in the measured solution.
The stability constants of both enantiomers were calculated. […] Note that since the fluorescence signal of the ligand (APR) was subtracted for each sample, (IAPR) could be excluded from this equation (8) Iobs.=IHSA·χHSA+IAPR−HSA·χAPR−HSA where ΧHSA is the mole fraction of free HSA, while ΧAPR-HSA is the mole fraction of the APR-HSA complex. […]

T1 sequence (P02768 25-609): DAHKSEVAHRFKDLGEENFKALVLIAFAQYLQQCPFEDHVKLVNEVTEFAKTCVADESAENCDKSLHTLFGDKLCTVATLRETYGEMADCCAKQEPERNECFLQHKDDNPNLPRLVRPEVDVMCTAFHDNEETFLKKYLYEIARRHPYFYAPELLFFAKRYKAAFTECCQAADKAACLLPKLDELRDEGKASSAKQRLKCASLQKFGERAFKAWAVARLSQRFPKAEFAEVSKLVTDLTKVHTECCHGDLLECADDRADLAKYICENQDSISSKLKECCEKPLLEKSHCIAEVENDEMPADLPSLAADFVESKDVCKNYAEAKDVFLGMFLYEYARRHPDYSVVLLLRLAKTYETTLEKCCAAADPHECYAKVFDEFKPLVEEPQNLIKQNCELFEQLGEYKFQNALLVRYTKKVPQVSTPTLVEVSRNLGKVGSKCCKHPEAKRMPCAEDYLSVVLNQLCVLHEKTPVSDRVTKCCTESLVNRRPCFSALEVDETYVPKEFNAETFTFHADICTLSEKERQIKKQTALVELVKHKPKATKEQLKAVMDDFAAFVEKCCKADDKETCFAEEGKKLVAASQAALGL

With `CCOc1cc([C@H](CS(C)(=O)=O)N2C(=O)c3cccc(NC(C)=O)c3C2=O)ccc1OC` [R-APR], in assay [1], the “Δ(Δ)G°” value was -0.906 kcal/mol, the “Δ(Δ)H°” value was -6.338 kcal/mol and the “Δ(Δ)S°” value is listed as −76.29 J/molK. Besides, the “stability constant K of the enantiomer–HSA complex” value in assay [2] came to 6450 M⁻¹.

As for `CCOc1cc([C@@H](CS(C)(=O)=O)N2C(=O)c3cccc(NC(C)=O)c3C2=O)ccc1OC` [S-APR, apremilast], in assay [1], the “Δ(Δ)G°” value was -1.06 kcal/mol, the “Δ(Δ)H°” value is -7.237 kcal/mol and the “Δ(Δ)S°” value is recorded as −86.78 J/molK. The “stability constant K of the enantiomer–HSA complex” value in assay [2] was determined as 10400 M⁻¹.
